Results from patent publication US8063090B2, “Mineralocorticoid receptor modulators” (Merck Sharp & Dohme Corp., priority 2007, dated 2011).

Target: T1, recombinant rhesus mineralocorticoid receptor (Macaca mulatta, UniProt A0A5F8ATS5)
T1 construct: made in house; host or cells: insect cells infected with recombinant baculovirus; clarified cell lysate used
T1 sequence (A0A5F8ATS5 1-984): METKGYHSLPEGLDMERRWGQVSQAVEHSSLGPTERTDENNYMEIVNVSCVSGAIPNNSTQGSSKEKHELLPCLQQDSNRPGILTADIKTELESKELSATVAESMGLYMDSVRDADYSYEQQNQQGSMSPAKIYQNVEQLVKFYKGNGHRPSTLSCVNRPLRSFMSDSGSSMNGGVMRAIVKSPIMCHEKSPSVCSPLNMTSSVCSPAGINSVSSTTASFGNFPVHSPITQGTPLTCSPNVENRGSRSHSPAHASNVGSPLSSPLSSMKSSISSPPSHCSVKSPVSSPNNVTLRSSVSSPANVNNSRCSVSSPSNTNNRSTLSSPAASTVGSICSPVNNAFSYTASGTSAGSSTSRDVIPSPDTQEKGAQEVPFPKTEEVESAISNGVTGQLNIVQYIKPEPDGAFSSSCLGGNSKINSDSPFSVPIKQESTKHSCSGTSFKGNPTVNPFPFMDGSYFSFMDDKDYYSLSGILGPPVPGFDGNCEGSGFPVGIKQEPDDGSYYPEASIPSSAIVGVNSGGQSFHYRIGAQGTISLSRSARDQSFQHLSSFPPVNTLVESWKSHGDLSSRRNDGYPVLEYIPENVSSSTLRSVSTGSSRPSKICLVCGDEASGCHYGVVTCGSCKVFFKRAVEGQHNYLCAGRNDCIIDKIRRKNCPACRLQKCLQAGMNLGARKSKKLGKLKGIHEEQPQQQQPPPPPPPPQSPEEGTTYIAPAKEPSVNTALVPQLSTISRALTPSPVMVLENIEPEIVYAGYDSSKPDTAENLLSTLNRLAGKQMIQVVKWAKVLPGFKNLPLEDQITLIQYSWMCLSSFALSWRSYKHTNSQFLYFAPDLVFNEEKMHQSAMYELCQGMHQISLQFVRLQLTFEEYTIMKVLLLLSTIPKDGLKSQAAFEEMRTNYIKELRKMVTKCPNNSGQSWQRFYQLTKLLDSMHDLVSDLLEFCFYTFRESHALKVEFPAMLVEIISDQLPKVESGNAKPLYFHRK
Assay: Mineralocorticoid receptor radioligand ([3H]-aldosterone) filter binding assay
Conditions: displacement of [3H]-aldosterone, insect cell lysate, 20° C., read-out: Mineralocorticoid receptor binding affinity Ki
Protocol: Measurement of Mineralocorticoid Receptor Binding Affinity
The binding affinity of compounds for the mineralocorticoid receptor was determined by measuring their ability to prevent binding of radiolabeled aldosterone to recombinant rhesus mineralocorticoid receptor in a traditional filter binding assay protocol.
Rhesus mineralocorticoid receptor cDNA was cloned from a cDNA library using and used to prepare a recombinant baculovirus encoding the rhesus mineralocorticoid receptor coding sequence by standard molecular biological and cell biological methods. […] Cells were collected and lysed. The lysates were clarified by centrifugation and stored at −80 C until use in the radioligand binding assay.
The assays were carried out in 20 mM Hepes, 10 mM Na2MoO4, 10 mM 2-mercaptoethanol, 157 mM sucrose, and 3.7 mM CHAPS. [^3H]-Aldosterone (1 mCi/ml, 70-100 Ci/mmol) was purchased from Perkin Elmer (NET419). Test compounds were dissolved in DMSO and diluted in DMSO to 50 times the desired final concentrations for 3-fold serial dilution dose response curves. A working stock solution of [^3H]-aldosterone was prepared by dilution of the commercial stock to 0.083 μM in assay buffer. The insect cell lysate containing rhesus mineralocorticoid receptor was thawed and diluted to 0.7 mg protein/mL. Assay were started by combining 20 μL of test compound solution, 920 μL of diluted insect cell lysate, and 60 μL of [^3H]-aldosterone working solution in 2-mL 96-well polypropylene square well plates (USA Scientific) at 20° C. The mixture was incubated for 3 hr with continuous agitation on a platform shaker. The mixture was then filtered through 96-well GF/B filter plates (Packard) that had been previously treated with a solution of polyethylenimine (Sigma, P-3143). The filter plate was washed 3 times with 0.5 mL of 50 mM Tris-HCl, pH 7.4 and then dried overnight at 37° C. in a vacuum oven. The bottom of the plate was sealed and 40 μL of Microscint-20 (Packard, 6013621) was added to each well before counting radioactivity with a Topcount plate reader. Non-specific radioligand binding was determined by adding non-radiolabeled aldosterone (0.5 mM in DMSO) to the assay mixture to a final concentration of 10 μM in place of test compound. IC50 and Ki values were determined using a four parameter logistic fit using a customized assay data analyzer software package.

| Compound | Ki [nM] |
| --- | --- |
| CC(c1ccccc1)n1ccnc1C(c1ccccc1)c1ccccc1 (racemic) [Compound 1-5, 2-(diphenylmethyl)-1-(1-phenylethyl)-1H-imidazole] | 2860 |
| CC(c1cccc(I)c1)n1ccnc1C(c1ccccc1)c1ccccc1 (stereo not shown) [Compound 1-6, 2-(diphenylmethyl)-1-[1-(3-iodophenyl)ethyl]-1H-imidazole] | 2600 |
| COc1ccc(Cn2ccnc2C(c2ccccc2)c2ccccc2)cc1 [Compound 1-7, 2-(diphenylmethyl)-1-(4-methoxybenzyl)-1H-imidazole] | 2650 |
| FC(F)(F)c1cccc(Cn2ccnc2C(c2ccccc2)c2ccccc2)c1 [Compound 1-8, 2-(diphenylmethyl)-1-[3-(trifluoromethyl)benzyl]-1H-imidazole] | 410 |
| CC(c1cc(C(F)(F)F)cc(C(F)(F)F)c1)n1ccnc1C(c1ccccc1)c1ccccc1 (stereo not shown) [Compound 1-10, 1-{1-[3,5-bis(trifluoromethyl)phenyl]ethyl}-2-(diphenylmethyl)-1H-imidazole] | 1090 |
| FC(F)(F)c1cc(Cn2ccnc2C(c2ccccc2)c2ccccc2)cc(C(F)(F)F)c1 [Compound 1-11, 1-[3,5-bis(trifluoromethyl)benzyl]-2-(diphenylmethyl)-1H-imidazole] | 1350 |
| Ic1cccc(Cn2ccnc2C(c2ccccc2)c2ccccc2)c1 [Compound 1-12, 2-(diphenylmethyl)-1-(3-iodobenzyl)-1H-imidazole] | 287 |
| Cc1cccc(Cn2ccnc2C(c2ccccc2)c2ccccc2)c1 [Compound 1-13, 2-(diphenylmethyl)-1-(3-methylbenzyl)-1H-imidazole] | 134 |
| O=[N+]([O-])c1cccc(Cn2ccnc2C(c2ccccc2)c2ccccc2)c1 [Compound 1-14, 2-(diphenylmethyl)-1-(3-nitrobenzyl)-1H-imidazole] | 587 |
| Nc1cccc(Cn2ccnc2C(c2ccccc2)c2ccccc2)c1 [Compound 1-15, 3-{[2-(diphenylmethyl)-1H-imidazol-1-yl]methyl}aniline] | 633 |
| CC(c1cc(Cl)cc(Cl)c1)n1ccnc1C(c1ccccc1)c1ccccc1 (stereo not shown) [Compound 1-16, 1-[1-(3,5-dichlorophenyl)ethyl]-2-(diphenylmethyl)-1H-imidazole] | 298 |
| COc1ccc(Br)cc1Cn1ccnc1C(c1ccccc1)c1ccccc1 [Compound 1-17, 1-(5-bromo-2-methoxybenzyl)-2-(diphenylmethyl)-1H-imidazole] | 499 |
| Clc1cc2c(cc1Cn1ccnc1C(c1ccccc1)c1ccccc1)OCO2 [Compound 1-18, 1-[(6-chloro-1,3-benzodioxol-5-yl)methyl]-2-(diphenylmethyl)-1H-imidazole] | 1120 |
| COc1cc(OC)cc(C(=O)Nc2cccc(Cn3ccnc3C(c3ccccc3)c3ccccc3)c2)c1 [Compound 1-19, N-(3-{[2-(diphenylmethyl)-1H-imidazol-1-yl]methyl}phenyl)-3,5-dimethoxybenzamide] | 302 |
| O=C(Nc1cccc(Cn2ccnc2C(c2ccccc2)c2ccccc2)c1)c1cc(Cl)cc(Cl)c1 [Compound 1-20, 3,5-dichloro-N-(3-{[2-(diphenylmethyl)-1H-imidazol-1-yl]methyl}phenyl)benzamide] | 162 |
| c1ccc(Cn2c(C(c3ccccc3)c3ccccc3)nc3ccccc32)cc1 [Compound 2-3, 1-benzyl-2-(diphenylmethyl)-1H-benzimidazole] | 964 |
| CC(c1ccccc1)n1c(C(c2ccccc2)c2ccccc2)nc2ccccc21 (stereo not shown) [Compound 2-4, 2-(diphenylmethyl)-1-(1-phenylethyl)-1H-benzimidazole] | 2090 |

Tested on: not given
Assay: not given
Conditions: in combination with standard CHF therapy, patients suffering from advanced CHF; cited from earlier work

| Compound | reduced cardiac related mortality [%] | reduced frequency of hospitalization [%] |
| --- | --- | --- |
| CC(=O)S[C@@H]1CC2=CC(=O)CC[C@]2(C)[C@H]2CC[C@@]3(C)[C@@H](CC[C@@]34CCC(=O)O4)[C@H]12 [spironolactone] | 30 | 33 |
